Data published in patent US20090047246A1, “NOVEL INHIBITORS OF HEPATITIS C VIRUS REPLICATION” (InterMune, Inc., priority 2007, published 2009).
Read-outs that look alike come from different tables or passages of the source.

Molecular target: T1, HCV NS3 helicase (Hepatitis C virus genotype 1b, UniProt P26663)
T1 construct: full-length NS3 (1-631), purified at Array BioPharma
Experiment: HCV Helicase Prompt FRET Assay (Example A)
Format: biochemical
Method in brief: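 Full-length NS3 (1-631), 5 or 6 nM, preincubated 5 min with compound, then unwinds 50 nM FAM/BHQ-1 duplex substrate with 250 nM capture strand and 300 μM ATP in 25 mM MOPS pH 7.0, 1.5 mM MgCl2, 0.005% Triton X-100, 2% DMSO. Fluorescence (485/535 nm) followed ~30 min at room temperature; IC50 from initial rates by 4- or 5-parameter fit.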

[1] = HCV NS3 helicase, tables do not say whether Example A or Example B assay, read-out: IC50 Activity

T1 sequence (P26663 1027-1657): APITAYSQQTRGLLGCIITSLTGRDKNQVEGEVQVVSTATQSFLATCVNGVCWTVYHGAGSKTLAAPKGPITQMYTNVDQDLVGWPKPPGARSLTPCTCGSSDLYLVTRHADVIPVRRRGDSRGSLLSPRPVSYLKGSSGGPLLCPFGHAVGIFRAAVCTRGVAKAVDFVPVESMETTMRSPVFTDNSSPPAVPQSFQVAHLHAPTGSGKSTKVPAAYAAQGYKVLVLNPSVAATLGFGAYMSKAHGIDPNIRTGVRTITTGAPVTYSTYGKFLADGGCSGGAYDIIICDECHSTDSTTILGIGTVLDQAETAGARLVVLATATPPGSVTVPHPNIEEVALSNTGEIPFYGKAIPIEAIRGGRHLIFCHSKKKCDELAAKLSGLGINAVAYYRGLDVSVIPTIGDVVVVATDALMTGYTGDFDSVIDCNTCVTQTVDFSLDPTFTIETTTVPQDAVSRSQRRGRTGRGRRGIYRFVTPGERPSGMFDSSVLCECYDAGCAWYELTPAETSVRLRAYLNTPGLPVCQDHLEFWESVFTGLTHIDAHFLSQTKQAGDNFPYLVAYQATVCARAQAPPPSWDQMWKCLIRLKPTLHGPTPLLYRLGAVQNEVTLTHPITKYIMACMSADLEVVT

| IC50 [1] [µM] | SMILES | also measured |
| --- | --- | --- |
| > 50 | Cc1cc([N+](=O)[O-])ccc1-n1cc(C(=O)C(N)=O)c2cc(Br)ccc21 [Example 384] |  |
| > 50 | CCN(CC)C(=O)C(=O)c1cn(-c2ccc([N+](=O)[O-])cc2C)c2ccc(Br)cc12 [Example 385] |  |
| 10 to 50 | Cc1cc([N+](=O)[O-])ccc1-n1cc(CCC(=O)O)c2cc(Br)ccc21 [Example 386] |  |
| 10 to 50 | COC(=O)C(c1ccccc1)c1cn(-c2ccc([N+](=O)[O-])cc2C)c2ccc(Br)cc12 (stereo not drawn) [Example 387] | IC50 (2nd test, read-out: IC50 Activity (on 2nd test)): > 50 µM |
| < 10 | Cc1cc([N+](=O)[O-])ccc1-n1cc(C(C(=O)O)c2ccccc2)c2cc(Br)ccc21 (stereo not drawn) [Example 388] |  |
|  | CCOC(=O)C(O)(c1cn(-c2ccc([N+](=O)[O-])cc2C)c2ccc(Br)cc12)C(F)(F)F (stereo not drawn) [Example 389] | IC50 (IC50 Activity, HCV NS3 helicase, tables do not say whether Example A or Example B assay): > 50 µM |
| > 50 | COC(=O)C(C)c1cn(-c2ccc([N+](=O)[O-])cc2C)c2ccc(Br)cc12 (stereo not drawn) [Example 390] |  |
| 10 to 50 | Cc1cc([N+](=O)[O-])ccc1-n1cc(C(C)C(=O)O)c2cc(Br)ccc21 (stereo not drawn) [Example 391] |  |
| < 10 | Cc1cc([N+](=O)[O-])ccc1-n1cc(C(O)(C(=O)O)C(F)(F)F)c2cc(Br)ccc21 (stereo not drawn) [Example 392] |  |
| 10 to 50 | COC(=O)CC1CN(c2ccc([N+](=O)[O-])cc2C)c2ccc(Br)cc21 (stereo not drawn) [Example 393] |  |
| > 50 | CCOC(=O)C(O)c1cn(-c2ccc([N+](=O)[O-])cc2C)c2ccc(Br)cc12 (stereo not drawn) [Example 394] |  |
| 10 to 50 | Cc1cc([N+](=O)[O-])ccc1N1CC(CC(=O)O)c2cc(Br)ccc21 (stereo not drawn) [Example 395] |  |
| < 10 | COC(=O)C(c1ccc([N+](=O)[O-])cc1C)c1cn(-c2ccc([N+](=O)[O-])cc2C)c2ccc(Br)cc12 (stereo not drawn) [Example 396] |  |
| > 50 | COC(=O)C(Cc1ccccc1)c1cn(-c2ccc([N+](=O)[O-])cc2C)c2ccc(Br)cc12 (stereo not drawn) [Example 397] |  |
| < 10 | Cc1cc([N+](=O)[O-])ccc1-n1cc(C(Cc2ccccc2)C(=O)O)c2cc(Br)ccc21 (stereo not drawn) [Example 398] |  |
| 10 to 50 | Cc1cc([N+](=O)[O-])ccc1Cc1cn(-c2ccc([N+](=O)[O-])cc2C)c2ccc(Br)cc12 [Example 399] |  |
| 10 to 50 | COC(=O)C(c1ccc([N+](=O)[O-])cc1C)C1CN(c2ccc([N+](=O)[O-])cc2C)c2ccc(Br)cc21 (stereo not drawn) [Example 400] |  |
| > 50 | Cc1cc([N+](=O)[O-])ccc1-n1cc(C(=O)C(=O)N2CCCC2)c2cc(Br)ccc21 [Example 401] |  |
| > 50 | Cc1cc([N+](=O)[O-])ccc1-n1cc(C(O)(C(=O)N2CCCC2)C(F)(F)F)c2cc(Br)ccc21 (stereo not drawn) [Example 402] |  |
|  | COC(=O)C(c1ccc([N+](=O)[O-])cc1C)C1CN(c2ccc([N+](=O)[O-])cc2C)c2ccc(Br)cc21 (stereo not drawn) [Example 403] | IC50 (numeric bound instead of class symbol, read-out: IC50 Activity): > 20 µM |
| 10 to 50 | Cc1cc([N+](=O)[O-])ccc1C(C(=O)O)C1CN(c2ccc([N+](=O)[O-])cc2C)c2ccc(Br)cc21 (stereo not drawn) [Example 404] |  |
| 10 to 50 | Cc1cc([N+](=O)[O-])ccc1CC1CN(c2ccc([N+](=O)[O-])cc2C)c2ccc(Br)cc21 (stereo not drawn) [Example 405] |  |
| 10 to 50 | Cc1cc([N+](=O)[O-])ccc1C(C(=O)O)C1CN(c2ccc([N+](=O)[O-])cc2C)c2ccc(Br)cc21 (stereo not drawn) [Example 406] |  |
| > 50 | COC(=O)C(Cc1ccc(C(C)C)cc1)c1cn(-c2ccc([N+](=O)[O-])cc2C)c2ccc(Br)cc12 (stereo not drawn) [Example 407] |  |

| IC50 [1] [µM] | SMILES | also measured |
| --- | --- | --- |
| 10 to 50 | Cc1cc([N+](=O)[O-])ccc1-n1cc(C(Cc2ccc(C(C)C)cc2)C(=O)O)c2cc(Br)ccc21 (stereo not drawn) [Example 408] |  |
| > 50 | COC(=O)C(Cc1ccccc1)c1cn(Cc2ccc(C(C)C)cc2)c2ccc(Br)cc12 (stereo not drawn) [Example 409] |  |
| < 10 | CC(C)c1ccc(Cn2cc(C(Cc3ccccc3)C(=O)O)c3ccccc32)cc1 (stereo not drawn) [Example 410] |  |
| 10 to 50 | O=C(O)C(Cc1c[nH]c2ccc(Br)cc12)c1c[nH]c2ccc(Br)cc12 (stereo not drawn) [Example 411] |  |
| > 50 | CCOC(=O)Cc1c(-c2ccccc2)n(Cc2csc3ccc(Cl)cc23)c2ccccc12 [Example 412] |  |
| > 50 | CCOC(=O)C(Cc1ccccc1)c1c(-c2ccccc2)n(Cc2csc3ccc(Cl)cc23)c2ccccc12 (stereo not drawn) [Example 413] |  |
| < 10 | O=C(O)Cc1c(-c2ccccc2)n(Cc2csc3ccc(Cl)cc23)c2ccccc12 [Example 414] |  |
| < 10 | O=C(O)C(Cc1ccccc1)c1c(-c2ccccc2)n(Cc2csc3ccc(Cl)cc23)c2ccccc12 (stereo not drawn) [Example 415] |  |
| 10 to 50 | Cc1cc([N+](=O)[O-])ccc1-n1cc(C(CC2CC2)C(=O)O)c2ccccc21 (stereo not drawn) [Example 416] |  |
| > 50 | CC(C)c1ccc(Cn2cc(C(N)C(=O)O)c3ccccc32)cc1 (stereo not drawn) [Example 418] |  |
| 10 to 50 | CC(C)c1ccc(Cn2cc(C(NC(=O)OC(C)(C)C)C(=O)O)c3ccccc32)cc1 (stereo not drawn) [Example 419] |  |
| 10 to 50 | CC(=O)NC(C(=O)O)c1cn(Cc2ccc(C(C)C)cc2)c2ccccc12 (stereo not drawn) [Example 420] |  |
| > 50 | COC(=O)C(NC(=O)c1c[nH]cn1)c1cn(Cc2ccc(C(C)C)cc2)c2ccccc12 (stereo not drawn) [Example 421] |  |
| 10 to 50 | CC(C)c1ccc(Cn2cc(C(NC(=O)c3c[nH]cn3)C(=O)O)c3ccccc32)cc1 (stereo not drawn) [Example 422] |  |
| 10 to 50 | CC(C)c1ccc(Cn2cc(C(NC(N)=O)C(=O)O)c3ccccc32)cc1 (stereo not drawn) [Example 423] |  |
| 10 to 50 | CC(C)c1ccc(Cn2cc(CC(=O)O)c3ccccc32)cc1 [Example 424] |  |
| < 10 | CN(Cc1ccccc1)c1ccc(-n2cc(C(O)(C(=O)O)C(F)(F)F)c3ccccc32)cc1 (stereo not drawn) [Example 425] |  |
| 10 to 50 | CCOC(=O)c1c(CC(=O)O)c2cc(Br)ccc2n1Cc1ccc(C(C)C)cc1 [Example 427] |  |
| > 50 | CC(C)c1ccc(Cn2c(C(=O)N3CCOCC3)c(CC(=O)O)c3cc(Br)ccc32)cc1 [Example 428] |  |
| > 50 | CC(C)c1ccc(Cn2c(C(=O)N3CCNC(=O)C3)c(CC(=O)O)c3cc(Br)ccc32)cc1 [Example 429] |  |
| > 50 | CC(C)c1ccc(Cn2c(C(=O)N3CCNCC3)c(CC(=O)O)c3cc(Br)ccc32)cc1 [Example 430] |  |
| 10 to 50 | CC(C)c1ccc(Cn2c(C(=O)N3CCCC3)c(CC(=O)O)c3cc(Br)ccc32)cc1 [Example 431] |  |
| 10 to 50 | CCN(CC)C(=O)c1c(CC(=O)O)c2cc(Br)ccc2n1Cc1ccc(C(C)C)cc1 [Example 432] |  |
| 10 to 50 | CC(C)NC(=O)c1c(CC(=O)O)c2cc(Br)ccc2n1Cc1ccc(C(C)C)cc1 [Example 433] |  |

| IC50 [1] [µM] | SMILES | also measured |
| --- | --- | --- |
| 10 to 50 | CC(C)c1ccc(Cn2c(C(=O)NC3CC3)c(CC(=O)O)c3cc(Br)ccc32)cc1 [Example 434] |  |
| 10 to 50 | CC(C)c1ccc(Cn2c(C(=O)NC3CCCCC3)c(CC(=O)O)c3cc(Br)ccc32)cc1 [Example 435] |  |
| < 10 | CC(C)c1ccc(Cn2c(C(=O)NC3CCN(C(=O)OC(C)(C)C)CC3)c(CC(=O)O)c3cc(Br)ccc32)cc1 [Example 436] |  |
| 10 to 50 | CC(C)c1ccc(Cn2c(C(=O)NC3CCNCC3)c(CC(=O)O)c3cc(Br)ccc32)cc1 [Example 438] |  |
| 10 to 50 | CC(C)c1ccc(Cn2c(C(=O)NCCc3ccccn3)c(CC(=O)O)c3ccccc32)cc1 [Example 439] |  |
| 10 to 50 | CC(C)c1ccc(Cn2c(C(=O)NCc3ccccc3)c(CC(=O)O)c3cc(Br)ccc32)cc1 [Example 440] |  |
| 10 to 50 | CC(C)c1ccc(Cn2c(C(=O)NCc3ccc(-c4ccccc4)cc3)c(CC(=O)O)c3cc(Br)ccc32)cc1 [Example 441] |  |
| 10 to 50 | CC(C)c1ccc(Cn2c(C(=O)NCc3ccc(S(N)(=O)=O)cc3)c(CC(=O)O)c3ccccc32)cc1 [Example 442] |  |
| < 10 | CC(C)c1ccc(Cn2c(C(=O)NCc3ccc(S(C)(=O)=O)cc3)c(CC(=O)O)c3cc(Br)ccc32)cc1 [Example 443] |  |
| 10 to 50 | Cc1ccc(CNC(=O)c2c(CC(=O)O)c3cc(Br)ccc3n2Cc2ccc(C(C)C)cc2)o1 [Example 444] |  |
| < 10 | CC(C)c1ccc(Cn2c(C(=O)NCc3cccc(-c4ccccc4)c3)c(CC(=O)O)c3cc(Br)ccc32)cc1 [Example 445] |  |
| < 10 | CC(C)c1ccc(Cn2c(C(=O)NCc3ccc(Oc4ccccc4)cc3)c(CC(=O)O)c3cc(Br)ccc32)cc1 [Example 446] |  |
| < 10 | CC(C)c1ccc(Cn2c(C(=O)NCc3ccc([N+](=O)[O-])cc3)c(CC(=O)O)c3ccccc32)cc1 [Example 447] |  |
| < 10 | CC(C)c1ccc(Cn2c(C(=O)NCc3nc4ccccc4[nH]3)c(CC(=O)O)c3cc(Br)ccc32)cc1 [Example 448] |  |
| < 10 | CC(C)c1ccc(Cn2c(C(=O)NCc3nc4ccccc4[nH]3)c(CC(=O)O)c3ccccc32)cc1 [Example 449] |  |
| < 10 | CC(C)c1ccc(Cn2c(C(=O)NCc3ccc(Cl)cc3)c(CC(=O)O)c3ccccc32)cc1 [Example 450] |  |
| < 10 | CC(C)c1ccc(Cn2c(C(=O)NCc3cccc(Cl)c3)c(CC(=O)O)c3ccccc32)cc1 [Example 451] |  |
| < 10 | CC(C)c1ccc(Cn2c(C(=O)NCc3ccc(F)cc3)c(CC(=O)O)c3ccccc32)cc1 [Example 452] |  |
| < 10 | CC(C)c1ccc(Cn2c(C(=O)NCc3cccc(F)c3)c(CC(=O)O)c3ccccc32)cc1 [Example 453] |  |
| < 10 | CC(C)c1ccc(Cn2c(C(=O)NCc3ccc(OC(F)(F)F)cc3)c(CC(=O)O)c3ccccc32)cc1 [Example 454] |  |
| < 10 | CC(C)c1ccc(Cn2c(C(=O)NCc3ccc(C(F)(F)F)cc3)c(CC(=O)O)c3ccccc32)cc1 [Example 455] |  |
| < 10 | CC(C)c1ccc(Cn2c(C(=O)Nc3ccccc3)c(CC(=O)O)c3cc(Br)ccc32)cc1 [Example 456] |  |

| SMILES | IC50 [1] [µM] | also measured |
| --- | --- | --- |
| CC(C)c1ccc(Cn2cc(C(=O)C(=O)O)c3ccccc32)cc1 [Example 417] | 10 to 50 |  |
